Legend:
[1] = target: T1, Arabidopsis HPPD (SEQ ID NO:53) (Arabidopsis thaliana, UniProt P93836); assay: HPPD activity assay (HPLC of homogentisic acid); assay type: biochemical; settings: Arabidopsis HPPD
T1 construct: His6 (N); made in house; host or cells: E. coli BL21 (DE3)
T1 sequence (P93836 1-445): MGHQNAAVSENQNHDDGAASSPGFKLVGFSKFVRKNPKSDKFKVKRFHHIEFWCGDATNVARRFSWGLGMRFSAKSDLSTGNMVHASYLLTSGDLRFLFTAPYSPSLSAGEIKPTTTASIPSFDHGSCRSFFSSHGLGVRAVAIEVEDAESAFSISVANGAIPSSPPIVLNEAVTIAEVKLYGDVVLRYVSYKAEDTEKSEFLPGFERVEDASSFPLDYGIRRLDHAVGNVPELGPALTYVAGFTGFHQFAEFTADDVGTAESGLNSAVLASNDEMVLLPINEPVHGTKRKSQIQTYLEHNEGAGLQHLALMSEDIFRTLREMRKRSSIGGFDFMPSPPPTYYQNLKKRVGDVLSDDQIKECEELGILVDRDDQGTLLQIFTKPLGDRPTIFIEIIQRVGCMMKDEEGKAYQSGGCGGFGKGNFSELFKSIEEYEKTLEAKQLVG
Procedure: (§1) The activity assay for HPPD is based on the analysis of homogentisic acid by reversed phase HPLC.
(§2) The assay mixture can contain 150 mM potassium phosphate buffer pH 7.0, 50 mM L-ascorbic acid, 100 μM Catalase (Sigma-Aldrich), 1 μM FeSO4 and 0.2 units of purified HPPD enzyme in a total volume of 505 μl. 1 unit is defined as the amount of enzyme that is required to produce 1 nmol of HGA per minute at 20° C.
(§3) The reaction is allowed to proceed for 45 min at room temperature. The reaction is stopped by the addition of 50 μl of 4.5 M phosphoric acid. The sample is filtered using a […] pore size PVDF filtration device. 5 μl of the cleared sample is analyzed on an UPLC HSS T3 column (particle size 1.8 μm, dimensions 2, 1×50 mm; Waters) by isocratic elution using 90% 20 mM NaH2PO4 pH 2.2, 10% methanol (v/v).
(§4) HGA is detected electrochemically at 750 mV (mode: DC; polarity: positive) and quantified by integrating peak areas (Empower software; Waters).
(§5) Inhibitors are dissolved in DMSO (dimethylsulfoxide) to a concentration of 0.5 mM. From this stock solution serial five-fold dilutions are prepared in DMSO, which are used in the assay. The respective inhibitor solution accounts for 1% of the assay volume. Thus, final inhibitor concentrations range from 5 μM to 320 pM, respectively. Activities are normalized by setting the uninhibited enzyme activity to 100%. IC50 values are calculated using non-linear regression.
(§6) Using methods which are described in the above examples or well known in the art, purified recombinant wild-type HPPD enzymes are characterized with respect to their kinetic properties and sensitivity towards HPPD inhibiting herbicides. Apparent michaelis constants (Km) and maximal reaction velocities (Vmax) are calculated by non-linear regression with the software GraphPad Prism 5 (GraphPad Software, La Jolla, USA) using a substrate inhibition model. […] Weighted means (by standard error) of Km and IC50 values are calculated from at least three independent experiments. The Cheng-Prusoff equation for competitive inhibition (Cheng, Y. C.; Prusoff, W. H. Biochem Pharmacol 1973, 22, 3099-3108) is used to calculate dissociation constants (Ki).
(§7) Field performance of the HPPD enzyme, which is used as a herbicide tolerance trait may depend not only on its lack of sensitivity towards HPPD inhibiting herbicides but also on its activity. To assess the potential performance of a herbicide tolerance trait a tolerance index (TI) is calculated using the following formula: […]
(§8) Easy comparison and ranking of each trait is enabled by normalizing tolerance indexes on Arabidopsis wild-type HPPD.

[2] = target: T2, Hordeum HPPD (SEQ ID NO:2) (Hordeum vulgare, UniProt O48604, A164G/R146V/R147D/R148G); assay: HPPD activity assay; assay type: biochemical; settings: Hordeum HPPD
T2 construct: His-tag (N); made in house; host or cells: E. coli BL21 (DE3)
Procedure: as §1, §2, §3, §4, §5, §6, §7, §8

[3] = turnover number, substrate 4-HPP
[4] = read-out: Km [μM] (4-HPP), apparent michaelis constant

T2 sequence (O48604 whole entry R146V/R147D/R148G/A164G): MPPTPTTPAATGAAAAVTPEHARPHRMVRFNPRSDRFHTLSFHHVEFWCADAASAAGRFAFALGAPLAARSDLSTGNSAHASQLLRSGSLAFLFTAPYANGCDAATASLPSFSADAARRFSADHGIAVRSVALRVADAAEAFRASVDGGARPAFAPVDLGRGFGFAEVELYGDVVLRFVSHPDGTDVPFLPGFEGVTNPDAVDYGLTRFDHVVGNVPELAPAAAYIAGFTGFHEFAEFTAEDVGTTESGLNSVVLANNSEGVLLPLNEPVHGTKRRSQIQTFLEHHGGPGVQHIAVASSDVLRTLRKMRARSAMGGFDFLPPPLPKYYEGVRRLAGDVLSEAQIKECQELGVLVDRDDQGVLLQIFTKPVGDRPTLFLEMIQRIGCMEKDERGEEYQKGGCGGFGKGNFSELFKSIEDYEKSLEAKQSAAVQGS

SMILES: O=C(O)C(=O)Cc1ccc(O)cc1 [Inhibitor 4-HPP, 4-hydroxyphenylpyruvate]
- kcat [1, 3]: 12.9 s⁻¹
- Km [1, 4]: 13 µM
- kcat [2, 3]: 11.5 s⁻¹
- Km [2, 4]: 26 µM
